Literature values as cited in patent US20100047334A1, “PH SENSITIVE LIPOSOME COMPOSITIONS FOR CONTROLLING SURFACE TOPOGRAPHY AND BINDING REACTIVITY IN FUNCTIONALIZED LIPOSOMES” (priority 2006, published 2010).
Read-outs that look alike come from different tables or passages of the source. One block for each compound: values may come before it.

Tests used:
streptavidin = streptavidin (Streptomyces avidinii, UniProt P22629)
[1] = highest reported value; 0.1 ionic strength; dimyristoyl- and dipalmitoyl-phosphatidylserine membranes

lateral diffusion coefficient (at 37° C. (gel)): 10^−10 cm^2/s
lateral diffusion coefficient (in the fluid state): 5×10^−8 cm^2/s
Compound: CCCCCCCCCCCCCCCC(=O)OC[C@H](COP(=O)([O-])OCC[N+](C)(C)C)OC(=O)CCCCCCCCCCCCCCC [DPPC lipids, 1,2-Dipalmitoyl-sn-Glycero-3-Phosphocholine]

Compound: O=C(O)CCCC[C@@H]1SC[C@@H]2NC(=O)N[C@@H]21 [biotin]
Ka of the biotin-streptavidin link (streptavidin): 10^13 M^−1

apparent pKa of phosphatidylserine's carboxyl group [1]: 5.5
Compound: phosphatidylserine
